According to patent US8178506B2, “Oligomeric compounds and compositions for use in modulation of small non-coding RNAs” (Regulus Therapeutics Inc., priority 2003, dated 2012):
In the oligonucleotide strings, read from the 5' end, every base follows the letter of its sugar. An asterisk marks phosphorothioate; unmarked linkages are phosphodiester. Other units and linkages are bracketed, terminal groups are in braces. A string of capitals states the bases alone. e = 2'-O-(2-methoxyethyl) (MOE); [5mC] = 5-methylcytosine; d = 2'-deoxy (DNA)

Key:
[1] = system: BJ, B16-F10, T47D, T47Dp53 and HeLa cells; assay: Cell cycle assay (propidium iodide flow cytometry), cell line panel; type: cell-based; conditions: 150 nM oligomeric compound, 4.5 μg/ml LIPOFECTIN, after 72 hours, propidium iodide flow cytometry
HeLa cells = assay: Cell cycle assay in HeLa cells; type: cell-based, human; conditions: HeLa cells, 150 nM oligomeric compound; for % cells aneuploid / % cells in cell cycle phase G1 / % cells in cell cycle phase G2/M / % cells in cell cycle phase S / % cells in cell cycle phase subG1: 24 hours, relative to untreated control (UTC = 100); for % cells in cell cycle phase: G1 / % cells in cell cycle phase: G2/M / % cells in cell cycle phase: S / % cells in cell cycle phase: aneuploid / % cells in cell cycle phase: subG1: 48 hours after treatment, relative to untreated control (UTC=100)
T47D cells = assay: Caspase-3 activity assay (apoptosis) in T47D cells; conditions: T47D cells, 48 hours; for Fold Increase over UTC (caspase-3 activity, apoptosis): 200 nM oligomeric compound, experiment of Table 12

Substance | G1 (percentage of cells in phase of the cell cycle) [1] [%] | G2/M (percentage of cells in phase of the cell cycle) [1] [%] | S (percentage of cells in phase of the cell cycle) [1] [%] | SubG1 (percentage of cells in phase of the cell cycle) [1] [%] | aneuploid (percentage of cells) [1] [%] | % cells aneuploid (HeLa cells) [%] | % cells in cell cycle phase G1 (HeLa cells) [%] | % cells in cell cycle phase G2/M (HeLa cells) [%] | % cells in cell cycle phase S (HeLa cells) [%] | % cells in cell cycle phase subG1 (HeLa cells) [%] | % cells in cell cycle phase: G1 (HeLa cells) [%] | % cells in cell cycle phase: G2/M (HeLa cells) [%] | % cells in cell cycle phase: S (HeLa cells) [%] | % cells in cell cycle phase: aneuploid (HeLa cells) [%] | % cells in cell cycle phase: subG1 (HeLa cells) [%] | Fold Increase over UTC (caspase-3 activity, apoptosis) (T47D cells) [fold] | Fold Increase over UTC (caspase activity) (T47D cells; 200 nM, relative to untreated control)
328388 (eT*e[5mC]*e[5mC]*e[5mC]*eA*dT*dA*dG*d[5mC]*dA*dG*dG*dG*d[5mC]*dA*eG*eA*eG*e[5mC]*e[5mC]; antisense) [compound 328388] | 57.5 | 14.6 | 28 | 4.0 | 14.5 | 85 | 110 | 115 | 83 | 120 | 99 | 102 | 101 | 126 | 112 | 0.9 | 
328419 (antisense eT*eG*eT*eT*eG*d[5mC]*d[5mC]*dT*dA*dA*d[5mC]*dG*dA*dA*d[5mC]*eA*e[5mC]*eA*eG*eA) [compound 328419] | 51.2 | 16.3 | 32.5 | 6.0 | 17.9 | 77 | 109 | 124 | 79 | 87 | 99 | 107 | 96 | 112 | 83 | 0.7 | 
328424 (antisense eA*eG*eG*eA*eA*dG*d[5mC]*dA*d[5mC]*dA*d[5mC]*dA*dT*dT*dA*eT*e[5mC]*eA*e[5mC]*eA) [compound 328424] | 61.9 | 14.4 | 23.7 | 3.1 | 16.9 | 74 | 110 | 112 | 85 | 60 | 103 | 101 | 91 | 111 | 89 |  | 0.9
328644 (eG*eA*e[5mC]*eA*eA*dG*dG*dT*dG*dG*dG*dA*dG*d[5mC]*dG*eA*eG*eT*eG*eG; antisense) [compound 328644] | 58.4 | 14 | 27.6 | 7.2 | 17.5 | 68 | 113 | 109 | 84 | 71 | 101 | 98 | 101 | 82 | 52 | 0.7 | 
